Target: T1, Androgen Receptor (AR) protein (Homo sapiens, UniProt P10275, T878A)
T1 construct: endogenous in cells; host or cells: LNCaP
Experiment: Androgen Receptor (AR) protein degradation assay in LNCaP cells, western blotting
Format: cell-based
Conditions: 20 h; for inhibition at 0.01 µM: 0.01 μM compound; for inhibition at 0.1 µM: 0.1 μM compound; for inhibition at 1 µM: 1 μM compound
Procedure, shortened: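 LNCaP prostate cancer cells were cultured 3 days, then treated with compound for 20 h. Lysates in 1% SDS buffer were normalised by BCA, and 8 μg protein was run on 4–12% Bis-Tris gels. AR was immunoblotted with chemiluminescence, using GAPDH/β-actin as loading controls.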

T1 sequence (P10275 whole entry T878A): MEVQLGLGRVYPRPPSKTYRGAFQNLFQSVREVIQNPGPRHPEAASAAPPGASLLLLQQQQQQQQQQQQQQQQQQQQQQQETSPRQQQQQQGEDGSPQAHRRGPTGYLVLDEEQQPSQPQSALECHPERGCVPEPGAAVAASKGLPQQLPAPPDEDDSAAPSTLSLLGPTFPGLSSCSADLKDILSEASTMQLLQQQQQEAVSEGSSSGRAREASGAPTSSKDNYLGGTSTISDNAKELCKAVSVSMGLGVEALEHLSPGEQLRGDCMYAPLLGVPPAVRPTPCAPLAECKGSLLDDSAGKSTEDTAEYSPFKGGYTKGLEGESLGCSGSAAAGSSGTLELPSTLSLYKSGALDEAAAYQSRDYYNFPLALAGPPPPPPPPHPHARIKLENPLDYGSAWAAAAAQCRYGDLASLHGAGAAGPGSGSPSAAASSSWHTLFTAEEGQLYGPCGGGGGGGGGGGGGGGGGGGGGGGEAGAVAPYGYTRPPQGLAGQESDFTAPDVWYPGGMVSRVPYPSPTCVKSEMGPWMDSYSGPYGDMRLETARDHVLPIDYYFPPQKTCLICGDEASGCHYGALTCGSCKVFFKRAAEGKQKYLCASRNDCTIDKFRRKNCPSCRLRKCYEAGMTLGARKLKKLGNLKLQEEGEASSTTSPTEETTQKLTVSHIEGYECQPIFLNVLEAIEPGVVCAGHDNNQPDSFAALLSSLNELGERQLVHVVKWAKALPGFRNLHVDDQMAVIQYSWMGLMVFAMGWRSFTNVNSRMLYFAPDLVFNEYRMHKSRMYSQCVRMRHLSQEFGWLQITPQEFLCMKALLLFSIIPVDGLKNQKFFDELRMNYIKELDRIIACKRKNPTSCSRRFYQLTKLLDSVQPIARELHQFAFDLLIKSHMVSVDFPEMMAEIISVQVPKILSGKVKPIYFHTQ
T1 sequence (Q96SW2 whole entry partner): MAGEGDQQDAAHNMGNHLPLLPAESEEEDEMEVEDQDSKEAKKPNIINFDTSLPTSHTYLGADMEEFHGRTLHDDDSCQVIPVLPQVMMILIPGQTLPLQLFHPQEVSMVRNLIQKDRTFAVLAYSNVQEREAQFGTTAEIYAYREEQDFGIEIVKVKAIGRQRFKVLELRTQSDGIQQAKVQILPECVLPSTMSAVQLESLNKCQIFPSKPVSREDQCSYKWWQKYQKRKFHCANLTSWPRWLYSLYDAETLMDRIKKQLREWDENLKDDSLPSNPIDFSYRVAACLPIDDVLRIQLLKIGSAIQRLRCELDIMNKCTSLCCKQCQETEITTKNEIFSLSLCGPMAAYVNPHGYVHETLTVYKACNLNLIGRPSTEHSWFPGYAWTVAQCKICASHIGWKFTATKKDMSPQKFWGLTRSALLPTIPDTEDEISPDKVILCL

SMILES: N#Cc1ccc(N2CCC(C(=O)Nc3ccc(N4CCC(C(=O)N5CC6(CCN(c7ccc8c(c7)C(=O)N(C7CCC(=O)NC7=O)C8=O)CC6)C5)CC4)cn3)CC2)cc1C(F)(F)F (stereo not drawn) [Example 154, 1-(4-cyano-3-(trifluoromethyl)phenyl)-N-(5-(4-(7-(2-(2,6-dioxopiperidin-3-yl)-1,3-dioxoisoindolin-5-yl)-2,7-diazaspiro[3.5]nonane-2-carbonyl)piperidin-1-yl)pyridin-2-yl)piperidine-4-carboxamide]
- inhibition at 0.01 µM: 26%
- inhibition at 0.1 µM: 86%
- inhibition at 1 µM: 91%

SMILES: N#Cc1ccc(N2CCC(C(=O)Nc3cnc(N4CCC(CN5CC6(CCN(c7ccc8c(c7)C(=O)N(C7CCC(=O)NC7=O)C8=O)CC6)C5)CC4)cn3)CC2)cc1C(F)(F)F (stereo not drawn) [Example 155, 1-(4-cyano-3-(trifluoromethyl)phenyl)-N-(5-(4-((7-(2-(2,6-dioxopiperidin-3-yl)-1,3-dioxoisoindolin-5-yl)-2,7-diazaspiro[3.5]nonan-2-yl)methyl)piperidin-1-yl)pyrazin-2-yl)piperidine-4-carboxamide]
- inhibition at 0.01 µM: 38%
- inhibition at 0.1 µM: 89%
- inhibition at 1 µM: 98%

SMILES: N#Cc1ccc(N2CCC(C(=O)Nc3cnc(N4CCC(CCN5CCN(c6ccc7c(c6)C(=O)N(C6CCC(=O)NC6=O)C7=O)CC5)CC4)cn3)CC2)cc1C(F)(F)F (stereo not drawn) [Example 156, 1-(4-cyano-3-(trifluoromethyl)phenyl)-N-(5-(4-(2-(4-(2-(2,6-dioxopiperidin-3-yl)-1,3-dioxoisoindolin-5-yl)piperazin-1-yl)ethyl)piperidin-1-yl)pyrazin-2-yl)piperidine-4-carboxamide]
- inhibition at 0.01 µM: 35%
- inhibition at 0.1 µM: 76%
- inhibition at 1 µM: 96%

SMILES: N#Cc1ccc(N2CCC(C(=O)Nc3ncc(N4CCC(CN5CCN(CC6CCN(c7ccc8c(c7)C(=O)N(C7CCC(=O)NC7=O)C8=O)CC6)CC5)CC4)cn3)CC2)cc1C(F)(F)F (stereo not drawn) [Example 157, 1-(4-cyano-3-(trifluoromethyl)phenyl)-N-(5-(4-((4-((1-(2-(2,6-dioxopiperidin-3-yl)-1,3-dioxoisoindolin-5-yl)piperidin-4-yl)methyl)piperazin-1-yl)methyl)piperidin-1-yl)pyrimidin-2-yl)piperidine-4-carboxamide]
- inhibition at 0.01 µM: 0%
- inhibition at 0.1 µM: 33%
- inhibition at 1 µM: 78%

SMILES: N#Cc1ccc(N2CCC(C(=O)Nc3ncc(N4CCC(CN5CCN(C[C@H]6CCN(c7ccc8c(c7)C(=O)N(C7CCC(=O)NC7=O)C8=O)C6)CC5)CC4)cn3)CC2)cc1C(F)(F)F (stereo partly drawn) [Example 158, 1-(4-cyano-3-(trifluoromethyl)phenyl)-N-(5-(4-((4-(((3R)-1-(2-(2,6-dioxopiperidin-3-yl)-1,3-dioxoisoindolin-5-yl)pyrrolidin-3-yl)methyl)piperazin-1-yl)methyl)piperidin-1-yl)pyrimidin-2-yl)piperidine-4-carboxamide]
- inhibition at 0.01 µM: -7%
- inhibition at 0.1 µM: 27%
- inhibition at 1 µM: 65%

SMILES: N#Cc1ccc(N2CCC(C(=O)Nc3ncc(N4CCC(CN5CCN(CC6CCN(c7cc8c(cc7F)C(=O)N(C7CCC(=O)NC7=O)C8=O)CC6)CC5)CC4)cn3)CC2)cc1C(F)(F)F (stereo not drawn) [Example 159, 1-(4-cyano-3-(trifluoromethyl)phenyl)-N-(5-(4-((4-((1-(2-(2,6-dioxopiperidin-3-yl)-6-fluoro-1,3-dioxoisoindolin-5-yl)piperidin-4-yl)methyl)piperazin-1-yl)methyl)piperidin-1-yl)pyrimidin-2-yl)piperidine-4-carboxamide]
- inhibition at 0.01 µM: -16%
- inhibition at 0.1 µM: -5%
- inhibition at 1 µM: 84%

SMILES: N#Cc1ccc(N2CCC(C(=O)Nc3ncc(N4CCC(CN5CCN(C[C@H]6CCN(c7cc8c(cc7F)C(=O)N(C7CCC(=O)NC7=O)C8=O)C6)CC5)CC4)cn3)CC2)cc1C(F)(F)F (stereo partly drawn) [Example 160, 1-(4-cyano-3-(trifluoromethyl)phenyl)-N-(5-(4-((4-(((3R)-1-(2-(2,6-dioxopiperidin-3-yl)-6-fluoro-1,3-dioxoisoindolin-5-yl)pyrrolidin-3-yl)methyl)piperazin-1-yl)methyl)piperidin-1-yl)pyrimidin-2-yl)piperidine-4-carboxamide]
- inhibition at 0.01 µM: -19%
- inhibition at 0.1 µM: 4%
- inhibition at 1 µM: 71%

SMILES: N#Cc1ccc(N2CCC(C(=O)Nc3ccc(CN4CCC(CN5CCN(c6ccc7c(c6)C(=O)N(C6CCC(=O)NC6=O)C7=O)CC5)CC4)cn3)CC2)cc1C(F)(F)F (stereo not drawn) [Example 161, 1-(4-cyano-3-(trifluoromethyl)phenyl)-N-(5-((4-((4-(2-(2,6-dioxopiperidin-3-yl)-1,3-dioxoisoindolin-5-yl)piperazin-1-yl)methyl)piperidin-1-yl)methyl)pyridin-2-yl)piperidine-4-carboxamide]
- inhibition at 0.01 µM: 9%
- inhibition at 0.1 µM: 58%
- inhibition at 1 µM: 86%

SMILES: N#Cc1ccc(N2CCC(C(=O)Nc3ccc(CN4CCN(CC5CCN(c6ccc7c(c6)C(=O)N(C6CCC(=O)NC6=O)C7=O)CC5)CC4)cn3)CC2)cc1C(F)(F)F (stereo not drawn) [Example 162, 1-(4-cyano-3-(trifluoromethyl)phenyl)-N-(5-((4-((1-(2-(2,6-dioxopiperidin-3-yl)-1,3-dioxoisoindolin-5-yl)piperidin-4-yl)methyl)piperazin-1-yl)methyl)pyridin-2-yl)piperidine-4-carboxamide]
- inhibition at 0.01 µM: 62%
- inhibition at 0.1 µM: 95%
- inhibition at 1 µM: 97%

SMILES: N#Cc1ccc(N2CCC(C(=O)Nc3ccc(CN4CCC(CN5CCC(Oc6ccc7c(c6)C(=O)N(C6CCC(=O)NC6=O)C7=O)CC5)CC4)cn3)CC2)cc1C(F)(F)F (stereo not drawn) [Example 163, 1-(4-cyano-3-(trifluoromethyl)phenyl)-N-(5-((4-((4-((2-(2,6-dioxopiperidin-3-yl)-1,3-dioxoisoindolin-5-yl)oxy)piperidin-1-yl)methyl)piperidin-1-yl)methyl)pyridin-2-yl)piperidine-4-carboxamide]
- inhibition at 0.01 µM: -14%
- inhibition at 0.1 µM: 60%
- inhibition at 1 µM: 78%

SMILES: N#Cc1ccc(N2CCC(C(=O)Nc3ccc(CC4CCN(CC5CCN(c6ccc7c(c6)C(=O)N(C6CCC(=O)NC6=O)C7=O)CC5)CC4)cn3)CC2)cc1C(F)(F)F (stereo not drawn) [Example 164, 1-(4-cyano-3-(trifluoromethyl)phenyl)-N-(5-((1-((1-(2-(2,6-dioxopiperidin-3-yl)-1,3-dioxoisoindolin-5-yl)piperidin-4-yl)methyl)piperidin-4-yl)methyl)pyridin-2-yl)piperidine-4-carboxamide]
- inhibition at 0.01 µM: 79%
- inhibition at 0.1 µM: 96%
- inhibition at 1 µM: 97%

SMILES: N#Cc1ccc(N2CCC(C(=O)Nc3ccc(CCN4CCC(CN5CCN(c6ccc7c(c6)C(=O)N(C6CCC(=O)NC6=O)C7=O)CC5)CC4)cn3)CC2)cc1C(F)(F)F (stereo not drawn) [Example 165, 1-(4-cyano-3-(trifluoromethyl)phenyl)-N-(5-(2-(4-((4-(2-(2,6-dioxopiperidin-3-yl)-1,3-dioxoisoindolin-5-yl)piperazin-1-yl)methyl)piperidin-1-yl)ethyl)pyridin-2-yl)piperidine-4-carboxamide]
- inhibition at 0.01 µM: 42%
- inhibition at 0.1 µM: 87%
- inhibition at 1 µM: 95%

SMILES: N#Cc1ccc(N2CCC(C(=O)Nc3ccc(CCN4CCN(CC5CCN(c6ccc7c(c6)C(=O)N(C6CCC(=O)NC6=O)C7=O)CC5)CC4)cn3)CC2)cc1C(F)(F)F (stereo not drawn) [Example 166, 1-(4-cyano-3-(trifluoromethyl)phenyl)-N-(5-(2-(4-((1-(2-(2,6-dioxopiperidin-3-yl)-1,3-dioxoisoindolin-5-yl)piperidin-4-yl)methyl)piperazin-1-yl)ethyl)pyridin-2-yl)piperidine-4-carboxamide]
- inhibition at 0.01 µM: 69%
- inhibition at 0.1 µM: 96%
- inhibition at 1 µM: 97%

SMILES: N#Cc1ccc(N2CCC(C(=O)Nc3ccc(CCN4CCC(Oc5ccc6c(c5)C(=O)N(C5CCC(=O)NC5=O)C6=O)CC4)cn3)CC2)cc1C(F)(F)F (stereo not drawn) [Example 167, 1-(4-cyano-3-(trifluoromethyl)phenyl)-N-(5-(2-(4-((2-(2,6-dioxopiperidin-3-yl)-1,3-dioxoisoindolin-5-yl)oxy)piperidin-1-yl)ethyl)pyridin-2-yl)piperidine-4-carboxamide]
- inhibition at 0.01 µM: 25%
- inhibition at 0.1 µM: 67%
- inhibition at 1 µM: 85%

SMILES: N#Cc1ccc(N2CCC(C(=O)Nc3ccc(OCCN4CCN(CC5CCN(c6ccc7c(c6)C(=O)N(C6CCC(=O)NC6=O)C7=O)CC5)CC4)cn3)CC2)cc1C(F)(F)F (stereo not drawn) [Example 168, 1-(4-cyano-3-(trifluoromethyl)phenyl)-N-(5-(2-(4-((1-(2-(2,6-dioxopiperidin-3-yl)-1,3-dioxoisoindolin-5-yl)piperidin-4-yl)methyl)piperazin-1-yl)ethoxy)pyridin-2-yl)piperidine-4-carboxamide]
- inhibition at 0.01 µM: 73%
- inhibition at 0.1 µM: 97%
- inhibition at 1 µM: 99%

SMILES: N#Cc1ccc(N2CCC(C(=O)Nc3ccc(OC4CCN(CC5CCN(c6cc7c(cc6F)C(=O)N(C6CCC(=O)NC6=O)C7=O)CC5)CC4)cn3)CC2)cc1C(F)(F)F (stereo not drawn) [Example 170, 1-(4-cyano-3-(trifluoromethyl)phenyl)-N-(5-((1-((1-(2-(2,6-dioxopiperidin-3-yl)-6-fluoro-1,3-dioxoisoindolin-5-yl)piperidin-4-yl)methyl)piperidin-4-yl)oxy)pyridin-2-yl)piperidine-4-carboxamide]
- inhibition at 0.01 µM: 52%
- inhibition at 0.1 µM: 90%
- inhibition at 1 µM: 97%

SMILES: N#Cc1ccc(N2CCC(C(=O)Nc3ccc(OC4CCN(CC5CN(c6ccc7c(c6)C(=O)N(C6CCC(=O)NC6=O)C7=O)C5)CC4)cn3)CC2)cc1C(F)(F)F (stereo not drawn) [Example 171, 1-(4-cyano-3-(trifluoromethyl)phenyl)-N-(5-((1-((1-(2-(2,6-dioxopiperidin-3-yl)-1,3-dioxoisoindolin-5-yl)azetidin-3-yl)methyl)piperidin-4-yl)oxy)pyridin-2-yl)piperidine-4-carboxamide]
- inhibition at 0.01 µM: 69%
- inhibition at 0.1 µM: 93%
- inhibition at 1 µM: 95%
